Here are results for 1 molecule from patent publication US10792255B2, “Reconstituted apolipoprotein B lipoparticle, a preparation method and uses thereof” (National Chiao Tung University, priority 2013, dated 2020).

A word on the cell viability: it is a read-out of living cells in per cent, often relative to untreated cells. Read a high cell viability as less harm to the cells.

The test system of series [1] is A549 cells. The series is described as follows: Functional test of M4N@rABL (cell viability, trypan blue). The class given is cell-based. As to conditions: 100 μM M4N (20 μg/ml rABL), 24 hrs treatment then 48 hrs culture. An excerpt:
After removing the medium, the cells were washed twice with PBS and cultured with serum-containing medium for 48 hrs. The cell viability was observed by a trypan blue staining.

Series [2] relates to mice. As to conditions: long-term feeding; cited from earlier work.

The molecule `COc1ccc(C[C@@H](C)[C@@H](C)Cc2ccc(OC)c(OC)c2)cc1OC` [M4N, tetra-O-methyl nordihydroguaiaretic acid] had a cell viability in series [1] of 40%. In addition, in series [2], the “weight changes or mortality” value is given as “not found any obvious weight changes or mortality”.
